In the data set the test system is VCaP cells. The data set is described as follows: Cytotoxicity assessment (Cell-titer-glo cell viability), VCaP. The note with it: read-out: VCaP (CC50); VCaP cells, 6 days of treatment, Cell-titer-glo, vs DMSO.

In the case of `CC1(C)[C@H](NC(=O)c2ccc(N3CCN(CC4CCN(CCNC(=O)C5CN(c6ccc7nnn(C8CCC(=O)NC8=O)c(=O)c7c6)C5)CC4)CC3)cc2)C(C)(C)[C@H]1Oc1ccc(C#N)c(Cl)c1` (stereo partly shown) [Example 69, N-(2-(4-((4-(4-(((1r,3r)-3-(3-chloro-4-cyanophenoxy)-2,2,4,4-tetramethylcyclobutyl)carbamoyl)phenyl)piperazin-1-yl)methyl)piperidin-1-yl)ethyl)-1-(3-(2,6-dioxopiperidin-3-yl)-4-oxo-3,4-dihydrobenzo[d][1,2,3]triazin-6-yl)azetidine-3-carboxamide], the CC50 worked out at 345 nM.
Under `CC1(C)[C@H](NC(=O)c2ccc(N3CCN(CCCc4cn(-c5ccc6nnn(C7CCC(=O)NC7=O)c(=O)c6c5)nn4)CC3)cc2)C(C)(C)[C@H]1Oc1ccc(C#N)c(Cl)c1` (stereo partly shown) [Example 134, N-((1r,3r)-3-(3-chloro-4-cyanophenoxy)-2,2,4,4-tetramethylcyclobutyl)-4-(4-(3-(1-(3-(2,6-dioxopiperidin-3-yl)-4-oxo-3,4-dihydrobenzo[d][1,2,3]triazin-6-yl)-1H-1,2,3-triazol-4-yl)propyl)piperazin-1-yl)benzamide] stands 64.5 nM.
Under `CC1(C)C(NC(=O)c2ccc(-n3cc(CNC(=O)C4CCN(c5ccc6nnn(C7CCC(=O)NC7=O)c(=O)c6c5)CC4)nn3)cc2)C(C)(C)C1Oc1ccc(C#N)c(Cl)c1` (stereo not shown) [Example 150, N-((1-(4-(((1r,3r)-3-(3-chloro-4-cyanophenoxy)-2,2,4,4-tetramethylcyclobutyl)carbamoyl)phenyl)-1H-1,2,3-triazol-4-yl)methyl)-1-(3-(2,6-dioxopiperidin-3-yl)-4-oxo-3,4-dihydrobenzo[d][1,2,3]triazin-6-yl)piperidine-4-carboxamide] stands 24.4 nM; under `CC1(C)C(NC(=O)c2ccc(-n3cc(CCNc4ccc5nnn(C6CCC(=O)NC6=O)c(=O)c5c4)nn3)cc2)C(C)(C)C1Oc1ccc(C#N)c(Cl)c1` (stereo not shown) [Example 153, N-((1r,3r)-3-(3-chloro-4-cyanophenoxy)-2,2,4,4-tetramethylcyclobutyl)-4-(4-(2-((3-(2,6-dioxopiperidin-3-yl)-4-oxo-3,4-dihydrobenzo[d][1,2,3]triazin-6-yl)amino)ethyl)-1H-1,2,3-triazol-1-yl)benzamide], 45.4 nM.
With `CC1(C)C(NC(=O)c2ccc(-n3cc(CCNC(=O)CNc4ccc5nnn(C6CCC(=O)NC6=O)c(=O)c5c4)nn3)cc2)C(C)(C)C1Oc1ccc(C#N)c(Cl)c1` (stereo not shown) [Example 156, N-((1r,3r)-3-(3-chloro-4-cyanophenoxy)-2,2,4,4-tetramethylcyclobutyl)-4-(4-(2-(2-((3-(2,6-dioxopiperidin-3-yl)-4-oxo-3,4-dihydrobenzo[d][1,2,3]triazin-6-yl)amino)acetamido)ethyl)-1H-1,2,3-triazol-1-yl)benzamide], the CC50 turned out to be 936 nM.
For the molecule `CC1(C)C(NC(=O)c2ccc(C#CC3CCN(c4ccc5nnn(C6CCC(=O)NC6=O)c(=O)c5c4)CC3)cc2)C(C)(C)C1Oc1ccc(C#N)c(Cl)c1` (stereo not shown) [Example 142, N-((1r,3r)-3-(3-chloro-4-cyanophenoxy)-2,2,4,4-tetramethylcyclobutyl)-4-((1-(3-(2,6-dioxopiperidin-3-yl)-4-oxo-3,4-dihydrobenzo[d][1,2,3]triazin-6-yl)piperidin-4-yl)ethynyl)benzamide], the CC50 was 7.1 nM.
The result for `CC1(C)C(NC(=O)c2ccc(C#CC3CCN(CC4CCN(C(=O)C5CCN(c6ccc7nnn(C8CCC(=O)NC8=O)c(=O)c7c6)CC5)CC4)CC3)nc2)C(C)(C)C1Oc1ccc(C#N)c(Cl)c1` (stereo not shown) [Example 130, N-((1r,3r)-3-(3-chloro-4-cyanophenoxy)-2,2,4,4-tetramethylcyclobutyl)-6-((1-((1-(1-(3-(2,6-dioxopiperidin-3-yl)-4-oxo-3,4-dihydrobenzo[d][1,2,3]triazin-6-yl)piperidine-4-carbonyl)piperidin-4-yl)methyl)piperidin-4-yl)ethynyl)nicotinamide] reads 17 nM.

The values are drawn from patent US20240018123A1, “COMPOUND FOR INHIBITING OR DISINTEGRATING ANDROGEN RECEPTOR, AND PHARMACEUTICAL USE THEREOF” (KOREA RESEARCH INSTITUTE OF CHEMICAL TECHNOLOGY, priority 2020, published 2024).
